In PubChem BioAssay (NCI):
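Cells were grown in 96-well plates and exposed to each compound for 48 hours at five concentrations; endpoints were interpolated linearly between bracketing concentrations, or set to the highest concentration if not reached. GI50: concentration for 50% inhibition of growth. TGI marks complete inhibition of growth.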

Columns and labels:
Assay in all cases: NCI tumour cell line growth inhibition, 48 h
[1] = test system: OVCAR-8 ovarian
[2] = test system: NCI-H226 lung
[3] = test system: SF-268 CNS
[4] = test system: RXF 393 renal
[5] = test system: MOLT-4 leukemia
[6] = test system: T-47D breast
[7] = test system: HCC-2998 colon
[8] = test system: MDA-MB-468 breast
[9] = test system: SNB-19 CNS
[10] = test system: SK-MEL-5 melanoma
[11] = test system: UACC-257 melanoma
[12] = test system: COLO 205 colon
[13] = test system: LOX IMVI melanoma
[14] = test system: MDA-MB-435
[15] = test system: K-562 leukemia
[16] = test system: HCT-116 colon
[17] = test system: NCI-H23 lung
[18] = test system: SK-OV-3 ovarian
[19] = test system: NCI/ADR-RES ovarian
[20] = test system: SW-620 colon
[21] = test system: MCF7 breast
[22] = test system: KM12 colon
[23] = test system: SN12C renal
[24] = test system: HL-60(TB) leukemia
[25] = test system: EKVX NSCLC
[26] = test system: SF-295 CNS
[27] = test system: A549 NSCLC
[28] = test system: IGROV1 ovarian
[29] = test system: SF-539 CNS
[30] = test system: RPMI-8226 leukemia
[31] = test system: NCI-H522 lung
[32] = test system: DU-145 prostate
[33] = test system: PC-3 prostate
[34] = test system: M14 melanoma
[35] = test system: BT-549 breast
[36] = test system: OVCAR-3 ovarian
[37] = test system: SK-MEL-28 melanoma
[38] = test system: OVCAR-5 ovarian
[39] = test system: HS 578T breast
[40] = test system: SK-MEL-2 melanoma
[41] = test system: TK-10 renal
[42] = test system: A498 renal
[43] = test system: CCRF-CEM leukemia
[44] = test system: NCI-H460 lung
[45] = test system: U251 CNS
[46] = test system: HT29 colon
[47] = test system: OVCAR-4 ovarian
[48] = test system: ACHN renal
[49] = test system: MALME-3M melanoma
[50] = test system: 786-0 renal
[51] = test system: SNB-75 CNS
[52] = test system: HCT-15 colon
[53] = test system: UACC-62 melanoma
[54] = test system: CAKI-1 renal
[55] = test system: HOP-92 NSCLC
[56] = test system: HOP-62 NSCLC

COC(=O)C(Cc1ccc(O)c(O)c1)NC(=O)C(CSC/C=C(\C)CCCC(C)CCCC(C)CCCC(C)C)NC(C)=O (configuration not stated)
GI50 [1]: 7.95 µM
TGI [1]: 32.7 µM
GI50 [2]: 16.2 µM
TGI [2]: > 100 µM
GI50 [3]: 26.7 µM
TGI [3]: > 100 µM
GI50 [4]: 16.1 µM
TGI [4]: 44.5 µM
GI50 [5]: 3.34 µM
TGI [5]: > 100 µM
GI50 [6]: 7.78 µM
TGI [6]: 45.3 µM
GI50 [7]: 18 µM
TGI [7]: > 100 µM
GI50 [8]: 16.9 µM
TGI [8]: > 100 µM
GI50 [9]: 3.81 µM
TGI [9]: 48.4 µM
GI50 [10]: 28 µM
TGI [10]: > 100 µM
GI50 [11]: 69.2 µM
TGI [11]: > 100 µM
GI50 [12]: 15.5 µM
TGI [12]: > 100 µM
GI50 [13]: 10.5 µM
TGI [13]: > 100 µM
GI50 [14]: 41.5 µM
TGI [14]: > 100 µM
GI50 [15]: 8.06 µM
TGI [15]: > 100 µM
GI50 [16]: 1.33 µM
TGI [16]: 2.81 µM
GI50 [17]: 20 µM
TGI [17]: 64.2 µM
GI50 [18]: 17.5 µM
TGI [18]: 43.2 µM
GI50 [19]: 33.3 µM
TGI [19]: > 100 µM
GI50 [20]: 11.4 µM
TGI [20]: > 100 µM
GI50 [21]: 13.5 µM
TGI [21]: > 100 µM
GI50 [22]: 9.05 µM
TGI [22]: > 100 µM
GI50 [23]: 30.9 µM
TGI [23]: > 100 µM
GI50 [24]: 6.67 µM
TGI [24]: 41.5 µM
GI50 [25]: 30.3 µM
TGI [25]: > 100 µM
GI50 [26]: 18.3 µM
TGI [26]: 43.8 µM
GI50 [27]: 11.2 µM
TGI [27]: > 100 µM
GI50 [28]: 10.7 µM
TGI [28]: > 100 µM
GI50 [29]: 9.48 µM
TGI [29]: 26.1 µM
GI50 [30]: 4.06 µM
TGI [30]: > 100 µM
GI50 [31]: 1.82 µM
TGI [31]: 3.6 µM
GI50 [32]: > 100 µM
TGI [32]: > 100 µM
GI50 [33]: 3 µM
TGI [33]: 14.2 µM
GI50 [34]: 2.78 µM
TGI [34]: 12.5 µM
GI50 [35]: 1.36 µM
TGI [35]: 3 µM
GI50 [36]: 5.79 µM
TGI [36]: > 100 µM
GI50 [37]: 49.5 µM
TGI [37]: > 100 µM
GI50 [38]: 29.5 µM
TGI [38]: > 100 µM
GI50 [39]: 27.7 µM
TGI [39]: > 100 µM
GI50 [40]: 25.1 µM
TGI [40]: 90 µM
GI50 [41]: 22.3 µM
TGI [41]: 93.8 µM
GI50 [42]: 30.3 µM
TGI [42]: > 100 µM
GI50 [43]: 3.84 µM
TGI [43]: > 100 µM
GI50 [44]: 4.27 µM
TGI [44]: > 100 µM
GI50 [45]: 2.84 µM
TGI [45]: 11.2 µM
GI50 [46]: 9.19 µM
TGI [46]: > 100 µM
GI50 [47]: 25.6 µM
TGI [47]: > 100 µM
GI50 [48]: 16.5 µM
TGI [48]: 42.7 µM
GI50 [49]: 49.1 µM
TGI [49]: > 100 µM
GI50 [50]: 1.29 µM
TGI [50]: 2.76 µM
GI50 [51]: 39.3 µM
TGI [51]: > 100 µM
GI50 [52]: 4.45 µM
TGI [52]: > 100 µM
GI50 [53]: 17.1 µM
TGI [53]: 74.8 µM
GI50 [54]: 31 µM
TGI [54]: > 100 µM
GI50 [55]: 11.9 µM
TGI [55]: 30.1 µM
GI50 [56]: 13.6 µM
TGI [56]: 44.4 µM
